Source: PubChem BioAssay (NCI)
Values joined by “and” are separate entries in the source; they are usually repeats but may differ in a detail not shown here. Identical values can stand only once.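 1) Cells in 96-well plates. 2) Compound, 48 h, 5 concentrations. 3) Linear interpolation between surrounding doses. 4) Unreached endpoint = highest concentration. Abbreviation: GI50, concentration required for 50% inhibition of growth. TGI: concentration producing complete growth inhibition.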

How the values were obtained:
Test in all cases: inhibition of tumour cell growth, NCI panel, 48 h
K-562 leukemia = system: K-562 leukemia
OVCAR-4 ovarian = system: OVCAR-4 ovarian
NCI-H522 lung = system: NCI-H522 lung
SF-539 CNS = system: SF-539 CNS
EKVX NSCLC = system: EKVX NSCLC
U251 CNS = system: U251 CNS
MDA-MB-231 breast = system: MDA-MB-231 breast
OVCAR-3 ovarian = system: OVCAR-3 ovarian
UACC-257 melanoma = system: UACC-257 melanoma
SF-268 CNS = system: SF-268 CNS

SMILES	GI50 (K-562 leukemia)	TGI (K-562 leukemia)	GI50 (OVCAR-4 ovarian)	TGI (OVCAR-4 ovarian)	GI50 (NCI-H522 lung)	TGI (NCI-H522 lung)	GI50 (SF-539 CNS)	TGI (SF-539 CNS)	GI50 (EKVX NSCLC)	TGI (EKVX NSCLC)	GI50 (U251 CNS)	TGI (U251 CNS)	GI50 (MDA-MB-231 breast)	TGI (MDA-MB-231 breast)	GI50 (OVCAR-3 ovarian)	TGI (OVCAR-3 ovarian)	GI50 (UACC-257 melanoma)	TGI (UACC-257 melanoma)	GI50 (SF-268 CNS)	TGI (SF-268 CNS)
O=C1NC(=O)C(N2C(=O)c3ccccc3C2=O)CC1O (stereo not given)	> 100 µM	> 100 µM	> 100 µM	> 100 µM	> 100 µM	> 100 µM	> 100 µM	> 100 µM	> 100 µM	> 100 µM	> 100 µM	> 100 µM	> 100 µM	> 100 µM	> 100 µM	> 100 µM	> 100 µM	> 100 µM	> 100 µM	> 100 µM
COc1ccc(-c2cc(-c3ccc(C)cc3)nc3nc(=S)[nH]c(N)c23)cc1	15.1 µM	36.5 µM	74.3 µM	> 100 µM	19.3 µM	39 µM	19.2 µM	38.9 µM	25.8 µM	96 µM	15.2 µM	29.3 µM	19.5 µM	48.3 µM	13.6 µM	30.4 µM	22.8 µM	45.3 µM	17.5 µM	35.5 µM
COc1ccc2c(c1)N(CCO)C1=C(C(=O)OC1)C2c1cccc(F)c1 (stereo not given)	0.199 µM	> 50 µM	1.83 µM	> 50 µM	0.118 µM	1.08 µM	0.332 µM	3.19 µM	1.34 µM	> 50 µM	0.65 µM	> 50 µM	1.1 µM	> 19.3 µM	0.188 µM	–	> 50 µM	> 50 µM	0.764 µM	> 50 µM
O=c1[nH]c(=O)n(C2CC(O)C(COP(=O)(OCc3ccc([N+](=O)[O-])o3)N(CCCCCl)CC(O)CO)O2)cc1F (stereo not given)	3.14 µM	> 100 µM	> 100 µM	> 100 µM	0.985 µM	77.4 µM	< 0.0348 µM	–	> 28.2 µM	> 100 µM	–	> 100 µM	> 100 µM	> 100 µM	0.39 µM	–	0.0213 µM	0.852 µM	–	> 100 µM
CCOC(=O)C1=C(C)N(c2ccc(Cl)cc2)[C@]2(C#N)C(O)=C(Cl)C(Cl)=C(O)[C@]12C#N	21.5 µM	> 100 µM	> 100 µM	> 100 µM	56.5 µM	> 100 µM	8.61 µM	96.8 µM	6.24 µM	43.2 µM	> 100 µM	> 100 µM	38.8 µM	> 100 µM	65 µM	> 100 µM	> 100 µM	> 100 µM	> 100 µM	> 100 µM
CN1CCN(C(=O)c2cc(-c3ccc4ncnc(N5CCc6cc(F)c(Cl)cc65)c4c3)cnc2N)CC1	0.234 µM	11.7 µM	0.3 µM	4.22 µM	0.346 µM	3.22 µM	0.264 µM	1.44 µM	0.232 µM	1.55 µM	0.348 µM	5.71 µM	0.444 µM	3.12 µM	0.248 µM	1.49 µM	0.334 µM	3.52 µM	0.216 µM	2.32 µM
O=C(O)c1ccc(C(=O)c2ccccc2)c(C(=O)O)c1	–	> 100 µM	–	> 100 µM	–	> 100 µM	–	> 100 µM	–	> 100 µM	–	> 100 µM	–	> 100 µM	–	> 100 µM	–	> 100 µM	–	> 100 µM
CC(=O)/C=C/c1cn(C(=O)OC(C)(C)C)c2ccc(Br)cc12	18 µM	> 54 µM	25.7 µM	> 100 µM	17.7 µM	63.3 µM	12.8 µM	26 µM	24.5 µM	84.3 µM	12.5 µM	25.5 µM	18.9 µM	43.8 µM	13 µM	28.3 µM	> 70.3 µM	> 100 µM	24.1 µM	97.9 µM
COc1cc2c(cc1OCCCn1c(-c3ccccn3)nc3ccccc31)N=C[C@@H]1CCCN1C2=O	12.2 µM	> 55.3 µM	3.39 µM	> 42.6 µM	1.76 µM	6.81 µM	2.27 µM	4.98 µM	5 µM	40.2 µM	2.37 µM	11.4 µM	2.5 µM	13.5 µM	2.18 µM	5.11 µM	2.11 µM	9.42 µM	3.07 µM	9.79 µM
O=C1c2c(c3c4ccccc4[nH]c3c3ccc4ccccc4c23)C(=O)N1CCN1CCNCC1	1.44 µM	3.09 µM	1.65 µM	3.26 µM	1.75 µM	3.61 µM	1.68 µM	3.06 µM	1.59 µM	3.15 µM	1.64 µM	3.21 µM	1.72 µM	3.27 µM	1.83 µM	3.48 µM	1.87 µM	3.82 µM	1.86 µM	4.03 µM
CCc1ccc2c(c1)N(CCO)C1=C(C(=O)OC1)C2c1cccc(Br)c1 (stereo not given)	0.368 µM	14.7 µM	0.738 µM	17.3 µM	0.173 µM	2.06 µM	0.458 µM	10.1 µM	2.45 µM	20.6 µM	0.494 µM	14.5 µM	2.43 µM	15.7 µM	0.296 µM	1.23 µM	0.623 µM	19.6 µM	0.722 µM	15.9 µM
O=S(=O)(Nc1cc(Sc2cccc3cccnc23)c(O)c2ccccc12)c1ccc(F)cc1	1.37 µM	9.52 µM	0.504 µM	1.8 µM	1.4 µM	3.9 µM	2.04 µM	5.99 µM	1.41 µM	6.5 µM	0.839 µM	10.4 µM	0.837 µM	8.9 µM	0.869 µM	3.08 µM	1.75 µM	4.56 µM	1.89 µM	11.9 µM
CN1C(=O)N(C)C2C1NN=c1s/c(=C\c3ccc(C(F)(F)F)cc3)c(=O)n12 (stereo not given)	0.431 µM	> 100 µM	> 100 µM	> 100 µM	0.355 µM	2.25 µM	0.983 µM	6.26 µM	4.17 µM	> 100 µM	0.569 µM	14.4 µM	2.29 µM	14 µM	0.493 µM	17.7 µM	14.5 µM	> 100 µM	10.4 µM	> 100 µM
O=C(O)CN1CCN(CC(=O)O)CC(=O)[O][Hg][O]C(=O)C1	17.9 µM	44.6 µM	17.7 µM	34 µM	6.75 µM	> 47.6 µM	60.1 µM	> 100 µM	21 µM	41.5 µM	12.2 µM	25.7 µM	19.6 µM	35.3 µM	16.9 µM	30.6 µM	15.4 µM	28.7 µM	20.7 µM	52.6 µM
C=CC(=O)Nc1cccc(Oc2nc(Nc3ccc(N4CCN(C)CC4)cc3)nc3ccsc23)c1	2.03 µM and 2.15 µM	4.97 µM and 4.87 µM	2.74 µM and 3.23 µM	> 10 µM and 11.4 µM	0.43 µM and 1.27 µM	2.21 µM and 3.04 µM	1.62 µM and 1.75 µM	3.02 µM and 3.23 µM	1.55 µM and 2.39 µM	> 10 µM and 16.7 µM	2.89 µM and 2.97 µM	> 10 µM and 9.01 µM	2.25 µM and 2.24 µM	6.44 µM and 5.78 µM	2.11 µM and 1.88 µM	9.29 µM and 4.79 µM	2.6 µM and 1.98 µM	8.59 µM and 3.83 µM	3.48 µM and 2.73 µM	> 10 µM and 12.9 µM
O=C(NN1C(=O)CSC12CCCCC2)c1[nH]c2ccc(Br)cc2c1-c1ccccc1	13.4 µM	56.6 µM	13.3 µM	39.6 µM	18.7 µM	49.5 µM	21 µM	39.9 µM	48.2 µM	> 100 µM	15.8 µM	31.9 µM	20.4 µM	42.3 µM	15.5 µM	29.4 µM	26.4 µM	72.5 µM	20.3 µM	67.1 µM
NC(=O)c1csc(C2OC(CO)C(O)C2O)n1 (stereo not given)	8.88 µM	7060 µM	–	1160 µM	42.7 µM	678 µM	47.9 µM	3590 µM	–	5940 µM	45.5 µM	2540 µM	> 73.8 µM	> 6480 µM	22.2 µM	7030 µM	–	> 10000 µM	96.1 µM	9040 µM
O=S(=O)(c1ccc(Cl)cc1)C(Cl)(Cl)Cl	1.6 µM	> 100 µM	2.23 µM	> 63.3 µM	2.95 µM	21 µM	3.17 µM	29 µM	4.68 µM	> 21.4 µM	3.96 µM	21.1 µM	3.85 µM	23 µM	0.886 µM	4.45 µM	2.1 µM	11.8 µM	1.56 µM	20.6 µM
COc1cc(N2C(=O)[C@H](O)C2c2ccc(SC)cc2)cc(OC)c1OC (stereo not given in full)	< 0.01 µM	> 100 µM	0.0275 µM	> 100 µM	< 0.01 µM	–	< 0.01 µM	–	< 0.01 µM	> 100 µM	< 0.01 µM	> 100 µM	0.0235 µM	> 100 µM	< 0.01 µM	0.0138 µM	14.6 µM	> 100 µM	< 0.01 µM	59.3 µM
